We go through 19 compounds from ChEMBL document CHEMBL1201862, “PubChem BioAssay data set” (2004).

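A five-concentration, 48-hour dose response in 96-well plates underlies each endpoint, interpolated linearly between surrounding concentrations. Here, GI50 denotes the concentration required for 50% inhibition of growth.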 Activity calls are given as the source filed them. Rule as the data show it: active = GI50 up to about 1.1 µM and inactive = higher.

What all share (assay): growth of human tumour cells (NCI), 48 h
Assay [1] has as its system LXFL 529.
Assay [2] deals with DLD-1.
Assay [3] deals with RXF 631.
Assay [4] deals with SNB-78.
The test system of assay [5] is DMS-114.
The subject of assay [6] is XF498.
Assay [7] relates to M19-MEL.
Assay [8] concerns HOP-18.
Assay [9] has as its system DMS-273.

On to `O=NN(CCCl)C(=O)NCc1ccc[n+]([O-])c1`, for which the GI50 in [1], in assay [2], in assay [3], in assay [4], in [5] and in assay [6] was > 100 µM (inactive) each time. In assay [7], the GI50 was > 100 µM (inactive).

As for `Cc1cccc(C2SCc3nc4ccccc4n32)c1` (centres undefined), the GI50 in assay [1] was 25.2 µM (inactive); in assay [2] it was 25.2 µM (inactive); in assay [4], 27.5 µM (inactive); in assay [5], 10.9 µM (inactive); in assay [8] it was < 0.01 µM (active); in assay [7], 24 µM (inactive).

Take `COc1ccc(-c2cc3ccccc3[nH]c2=O)cc1OC`: the GI50 in assay [1], in [2], in assay [4], in [8], in [6] and in assay [7] was > 100 µM (inactive) in each case. For the same compound, in [9], the GI50 is > 100 µM (inactive).

As to `N#CC(N)(C(=O)C(=O)NCCCNC(=O)C(=O)C(N)(C#N)c1ccc(Cl)cc1)c1ccc(Cl)cc1` (centres undefined), the GI50 in [1], in assay [2], in [3], in assay [4], in [5] and in [8] was > 100 µM (inactive) each time. Besides, the GI50 in assay [6], in [7] and in assay [9] was > 100 µM (inactive) in each case.

With `Cc1ccc(C)c(N2C(=O)C(=O)C(c3nc4ccccc4o3)C(=O)C2=O)c1`, the GI50 in assay [1] is 48.9 µM (inactive); in assay [2], 22.9 µM (inactive); in [3], > 100 µM (inactive); in assay [4], > 100 µM (inactive); in assay [5], 44 µM (inactive); in assay [8], > 100 µM (inactive). Further, the GI50 in [7] is 59.2 µM (inactive); in [9], > 100 µM (inactive).

Regarding `O=C(NC1=C(Cl)C(=O)c2ccccc2C1=O)C(=O)C(C(=O)c1ccc2ccccc2c1)C1OC(=O)c2ccccc21` (centres undefined), the GI50 was 4.43 µM (inactive) in [1]; 4.31 µM (inactive) in assay [2]; 3.76 µM (inactive) in assay [4]; 2.36 µM (inactive) in assay [5]; 0.309 µM (active) in assay [7].

`COc1cccc2nc3cc(C)c(C)cc3nc12`: the GI50 in assay [1] is > 100 µM (inactive); in [2], 79.1 µM (inactive); in assay [3] it was > 100 µM (inactive); in [4], > 100 µM (inactive); in [5], > 100 µM (inactive); in assay [8], > 100 µM (inactive). Moreover, the GI50 in assay [6], in [7] and in [9] was > 100 µM (inactive) each time.

In the case of `COC(=O)CCC1CCc2c(OC)ccc(O)c2C1=O` (centres undefined), the GI50 in [1], in assay [2], in assay [3], in assay [4], in assay [7] and in [9] was > 100 µM (inactive) in each case.

For `CC(=O)OC1C(O)C(C)OC(OC2C(OC(=O)C3CCC4C(C3)OC3(CC(OC(=O)/C=C/c5ccccc5)C(C)CO3)C43CO3)OC(C)C(O)C2OC(C)=O)C1O` (centres undefined), the GI50 in assay [2] is 0.38 µM (active); in assay [4], 0.056 µM (active); in [5], 0.0251 µM (active); in assay [8], 0.0906 µM (active); in assay [6] it was 0.0357 µM (active); in assay [7] it was 0.0174 µM (active). Also, the GI50 in assay [9] is 0.0259 µM (active).

Regarding `CC1=CCC2(C#N)CCC1C2=O` (centres undefined), the GI50 in assay [1], in assay [2], in [3], in assay [4], in [5] and in assay [6] was > 100 µM (inactive) in each case. Also, the GI50 in assay [7] was > 100 µM (inactive).

Turning to `CCC1(Cl)C(=O)NC(=O)N(C2CC(O)C(CO)O2)C1N=[N+]=[N-]` (centres undefined), the GI50 in [1] was > 100 µM (inactive); in assay [2], > 100 µM (inactive); in assay [3], > 100 µM (inactive); in [4], > 100 µM (inactive); in assay [5], 80.4 µM (inactive); in assay [6], > 100 µM (inactive). Besides, the GI50 in assay [7] and in assay [9] was > 100 µM (inactive) in each case.

For the compound `C1CCN(c2nsc(N3CCCCC3)n2)CC1`, the GI50 in assay [1], in assay [2], in assay [3], in [4], in [5] and in [8] was > 100 µM (inactive) throughout. In addition, the GI50 in assay [7] and in assay [9] was > 100 µM (inactive) throughout.

Regarding `O=Cc1cc(O)c(O)c(O)c1-c1c(C=O)cc(O)c(O)c1O`, the GI50 in [1] was > 100 µM (inactive); in [2] it was > 100 µM (inactive); in assay [4] it was > 100 µM (inactive); in [5], 79.8 µM (inactive); in assay [8] it was > 100 µM (inactive); in [7], > 100 µM (inactive). Also, in [9], the GI50 was > 100 µM (inactive).

Consider `CC/C(CC(=O)CCC(=O)Nc1c(C)cccc1C)=N\NC(=O)NN`, for which the GI50 in assay [1], in assay [2], in assay [3], in [4], in [8] and in assay [7] was > 100 µM (inactive) throughout.

`CCOC(=O)CN(Cc1ccccc1)Cc1c(C(=O)c2ccccc2)c2ccccc2n1C(=O)c1ccccc1`: the GI50 in assay [1] was 8.57 µM (inactive); in assay [2] it was > 100 µM (inactive); in [4], > 100 µM (inactive); in [5], > 100 µM (inactive); in assay [6], 73.1 µM (inactive); in [7] it was > 100 µM (inactive). For the same compound, the GI50 in [9] was > 100 µM (inactive).

Regarding `CN(C)C(=O)Nc1c([N+](=O)[O-])cc(C(F)(F)F)cc1[N+](=O)[O-]`, the GI50 is 40.9 µM (inactive) in assay [1], 33.5 µM (inactive) in assay [4], 16.8 µM (inactive) in assay [6] and 43.8 µM (inactive) in assay [9].

Regarding `Cc1cc(N(CCOS(C)(=O)=O)CCOS(C)(=O)=O)ccc1/C=N/c1ccc(-c2nc(Cc3ccccc3)sc2C)cc1`, the GI50 is 16.6 µM (inactive) in [1]; 12.8 µM (inactive) in assay [2]; 32.9 µM (inactive) in assay [4]; 7.91 µM (inactive) in assay [5]; 6.64 µM (inactive) in assay [8]; 2.26 µM (inactive) in [6]. Further, the GI50 in assay [7] is 10 µM (inactive); in assay [9] it was 1.87 µM (inactive).

With `COc1ccc([C@H]2[C@@H]3CCc4ccccc4C3=NN2C(N)=S)cc1OC`, the GI50 in assay [1] is 24.2 µM (inactive); in [2] it was 53 µM (inactive); in assay [4] it was > 100 µM (inactive); in assay [5], 28.8 µM (inactive); in assay [8], > 100 µM (inactive); in assay [6], > 100 µM (inactive). For the same compound, the GI50 in assay [7] was 34.3 µM (inactive).

As to `COc1ccc2c(c1)c(=O)c1c(NCCCN(C)C)ccc3ncn2c31`, the GI50 in [1] was 3.41 µM (inactive); in assay [2], 1.14 µM (inactive); in [4] it was 7.48 µM (inactive); in assay [5], 10.6 µM (inactive); in assay [8], 11.2 µM (inactive); in assay [6] it was 5.35 µM (inactive). The GI50 is 9.08 µM (inactive) in assay [7] and 1.07 µM (active) in assay [9].
